Test: in vitro
Conditions: human, hela cells, % viability

Structure (SMILES)	viability at 28.5 h, 10 µM [%]
O=C1Cc2cc3ccccc3cc2C2(CCN(C(=O)C3CCC3C(=O)O)CC2)N1 (stereo not shown) [CBK047252]	92.5
CCC1CCCCN1C(=O)CCc1c(C)nc(-c2ccccc2)[nH]c1=O (stereo not shown) [CBK305608]	87.5
Cc1ccc2c(c1)c(-c1ccccc1)c(-c1ccccc1)n2CC(O)Cn1cnc(-c2ccccc2)c1-c1ccccc1 (stereo not shown) [CBK262531]	72.7
CONc1nc(NC(C)(C)C)nc(OCC#N)n1 [CBK263655]	85.9
CCn1ccc(NC(=O)CC2CCN(Cc3cccc(C(F)(F)F)c3)CC2)n1 [CBK285997]	101
O=C(c1cnc(-c2ccncc2)s1)N(CC(F)(F)F)C1CCC1 [CBK304119]	84.1
Nc1ncnc(NCCC(c2ccccc2)c2ccccc2)c1[N+](=O)[O-] [CBK267294]	90.5
CCOc1cccc(-c2cn3ccnc3c(N(C)CCN(C)C)n2)c1 [CBK066569]	89.7
C[C@@H]1C(=O)Nc2ccc(F)cc2N1C(=O)N1CCCC1 [CBK007936]	96
C=CCOc1ccc(C(=O)C2=C(O)C(=O)N(Cc3cccnc3)C2c2ccc(Cl)cc2)c(C)c1 (stereo not shown) [CBK264716]	99.6
C[N+](C)(C)Cc1ccccc1 [CBK011977I]	109
CC(=O)N1CCCN(Cc2c(C(C)C)[nH]c3ncccc23)CC1 [CBK285333]	103
CCc1ccc2oc(-c3ccc(NC(=O)COc4ccc(Cl)cc4Cl)cc3O)nc2c1 [CBK263424]	104
Cc1cc(Cl)ccc1NC(=O)CCC(=O)N/N=C/c1ccc(O)cc1 [CBK261974]	89.6
Clc1ccc(-c2cc(N3CCN(c4ccccn4)CC3)ncn2)cc1 [CBK091085]	112
Cn1nc(-c2ccc(S(=O)(=O)NCCN3CCNC3=O)s2)cc1C(F)(F)F [CBK062610]	91.6
O=C(/C=C/c1cn(C2CC(O)C(CO)O2)c(=O)[nH]c1=O)NCCNC(=O)C(F)(F)F (stereo not shown) [CBK201214]	98.2
CC(C)(C)c1ccccc1[S+]([O-])c1cc2c(N3CCNCC3)nccc2s1 (stereo not shown) [CBK200018C]	103
CN(CCCC(=O)O)c1nc(-c2ccc(Br)cc2)cs1 [CBK299834]	88.6
COc1ccc(-c2c[n+]3ccccc3c(=O)[nH]2)cc1 [CBK011078B]	93.8
CCc1nn(CC(=O)N(CC)CC)c(=O)c2cc3oc(C)cc3n12 [CBK283583]	99.5
COc1ccccc1-c1nccnc1OCCn1cccc1 [CBK106820]	91.3

Structure (SMILES)	viability at 28.5 h, 10 µM [%]
CCCCN(C=O)c1c(CC)nc2ccc(C(=O)N3CCN(C)CC3)cn12 [CBK145707]	93.1
CCCc1c(C(=O)N2CCN(c3cnccn3)CC2)cnn1C [CBK305962]	99
CC(C)[C@H]1CN(Cc2ccccc2F)CCN1C(=O)Cn1ncc2ccccc2c1=O [CBK286172]	82.2
CCCC/C=C/c1cncc(NC(C)CCCC(C)(C)O)n1 (stereo not shown) [CBK065505]	104
Cc1ccnc(NCC2CCN(c3ccc4nnnn4n3)C2)c1 (stereo not shown) [CBK306348]	57.3
CN(C)/C=N/c1ncnc2c1nc(Br)n2C1CC(O)C(CO)O1 (stereo not shown) [CBK201277]	93.6
O=C(CSc1nc2ccccc2o1)N1c2ccccc2Sc2ccccc21 [CBK221524]	97.7
Cc1cc(NC(=O)c2ccc(C(C)(C)C)cc2)nc2c1c(=O)oc1ccccc12 [CBK291200]	120
Cc1ccc(-n2ncc3c(=O)n(CC(=O)Nc4ccccc4)cnc32)cc1C [CBK287539]	87.3
CC(C)(C)C(=O)CN1CCC2(CC1)NCCc1c2[nH]c2cc(F)ccc12 [CBK039568]	90.2
Cc1nc(-c2ccc(CCNC(=O)c3cc(O)nc4ccccc34)s2)cs1 [CBK297720]	94.2
COc1ccccc1-c1cc(N2CCN(CC(=O)N(C)c3ccccc3)CC2)ncn1 [CBK091136]	99
O=C(c1cccc(C(F)(F)F)c1)N1CCN(C(=O)c2ccc3c(c2)CCC3)CC1 [CBK298300]	91.5
Cc1ccc(F)c(NS(=O)(=O)Cc2ccccc2)c1 [CBK038438]	111
O=C(CCN1C(=O)c2ccc([N+](=O)[O-])cc2C1=O)Nc1ccccc1-c1ccccc1 [CBK265134]	103
N/C(=N\OC(=O)COc1cccc2ccccc12)c1ccccn1 [CBK262999]	96.2
CCN(C(=O)c1cc2ccc(N(C)C)cc2[nH]1)C1CCN(C)CC1 [CBK281867]	79.8
CC(Oc1ccccc1Br)c1nc(-c2nonc2N)no1 (stereo not shown) [CBK026982]	86.2
COc1ccc(-c2nnc([C@H]3CCN(Cc4cccc(C#N)c4)C3)o2)cc1 [CBK289400]	94.8
Cc1ccc(Cc2cnc(NC(=O)C3CCOCC3)s2)cc1F [CBK306130]	77.5
O=C(CSc1nnc(-c2ccccc2)n1-c1ccccc1)N/N=C/c1coc2ccccc2c1=O [CBK262791]	97.6
O=C(NCc1cccnc1)N1CCN(CCc2ccccc2)CC1 [CBK158906]	93.7

Structure (SMILES)	viability at 28.5 h, 10 µM [%]
O=C(CCCc1ccccc1)Nc1ccc(F)cc1[N+](=O)[O-] [CBK265446]	99.9
Cc1cccc([C@@H]2CN(Cc3ccccc3)C[C@]23CCCCC(=O)N3)n1 [CBK283341]	97.1
O=C(Cc1ccc(Cl)cc1)Nc1ccc(Oc2ccc3c(c2)C(=O)NC3=O)cc1 [CBK265869]	87.8
CC(Oc1ccc(Cl)cc1Cl)C(=O)Nc1ccc(N2CCN(C)CC2)cc1 (stereo not shown) [CBK266780]	94.1
CS(=O)(=O)N[C@H]1CO[C@H]2[C@@H]1OC[C@@H]2Nc1nccc(-c2cccs2)n1 [CBK289519]	92
O=C1CCC(=O)N1Cc1cccc(-c2ccnc(NS(=O)(=O)c3ccc(Cl)cc3)n2)c1 [CBK067436]	86.3
Cn1cc(CCNC(=O)Nc2ccc(N3CCCC3)nc2)cn1 [CBK305659]	92.3
COCCCNC(=O)Cn1ccc2ccnc(-c3cccs3)c21 [CBK282303]	109
CCCCN(C(C)=O)c1c(CC)nc2ccc(C(=O)NCCCn3ccnc3)cn12 [CBK145759]	96.1
Cc1nn(C)c(C)c1CCC(=O)NCC(C)Oc1ccccc1F (stereo not shown) [CBK305194]	94.3
Cc1ccc(C(=O)NCCc2nnc3ccc(Cl)nn23)cc1 [CBK287636]	89.5
CCC1C(=O)N=C(SCC(=O)Nc2ncccn2)NC1=O (stereo not shown) [CBK263920]	94.6
Cc1cccc(NC(=O)CSCc2ccc(Cl)s2)n1 [CBK297895]	90.4
O=C(CSc1nc2ccccc2s1)c1cccc([N+](=O)[O-])c1 [CBK262130]	88.2
O=C(Cc1ccccc1Cl)N1CCC(O)(c2cccnc2F)CC1 [CBK284360]	101
CC(C)NC(=O)[C@H]1CN2CCC1C[C@@H]2Cn1cc(-c2cccc(O)c2)nn1 (stereo partly shown) [CBK288731]	91.7
Cc1nc(C)n(CC2CCCN(Cc3cn4ccccc4n3)C2)n1 (stereo not shown) [CBK304028]	88.3
Cn1nccc1C(=O)C1CCN(C(=O)c2cccc(F)c2)CC1 [CBK284426]	89.2
CCOC(=O)c1c(-c2ccc(Cl)cc2)csc1NC(=O)CCCC(=O)O [CBK296929]	91
CC(=O)c1cc(C(=O)Nc2cnn(Cc3ccc(F)cc3)c2)cs1 [CBK282528]	104
Cc1cc2nccc(C3CCCN(C(=O)c4ccccc4F)C3)n2n1 (stereo not shown) [CBK284184]	97.2
COc1cncc(-c2cc(Nc3cccc(OC)c3OC)ncn2)c1 [CBK090728]	97.8

Structure (SMILES)	viability at 28.5 h, 10 µM [%]
CNC(=O)c1ccc(-c2cc(OC)c(OC)c(OC)c2)nc1NCCOC [CBK105997]	94.1
CC(=O)c1ccc(C(=O)N2CCC3(CC2)CC(=O)c2ccc4ccccc4c2O3)cc1 [CBK156458]	104
c1ccc(OCCSc2nc3ccccc3nc2N2CCCC2)cc1 [CBK103694]	102
CC(C)(CNC(=O)Cn1cccc(C(=O)NC2CCCCC2)c1=O)c1ccccc1F [CBK286068]	89.6
Cc1ccc(NC(=O)c2cscn2)c(C)n1 [CBK200297]	102
COc1ccc2nc(N/C(N)=N/C(=O)COc3ccc(Cl)cc3)nc(C)c2c1 [CBK263924]	95
CCCC(=O)Nc1nc(-c2ccc(C)cc2)c(C)s1 [CBK287763]	110
O=c1[nH]c(-c2ccccc2)nc2c1CN(Cc1ccc(F)cc1)CC2 [CBK282329]	93.3
Cc1cc(NC(=O)CN2CCC(CNc3ccccn3)C2)on1 (stereo not shown) [CBK305760]	89.2
O=C(NCc1ccco1)c1cc(-c2ccc(Cl)cc2)cnc1N1CCOCC1 [CBK076352]	87
C#CCN(C1CCc2ccccc21)S(=O)(=O)c1cc(C(N)=O)n(C)c1 (stereo not shown) [CBK304287]	95.1
COCCNC(=O)c1cc2n(n1)C(C(F)(F)F)CC(c1ccccc1)N2 (stereo not shown) [CBK307610]	114
CC(C)(C)OC(=O)N1CCN(c2cncc(OC3CSCc4ccccc43)n2)CC1 (stereo not shown) [CBK172354]	105
COc1ccc2[nH]cc(CCNC(=O)/C=C/c3ccc(C(C)C)cc3)c2c1 [CBK149639]	91.7
O[C@H]1[C@H](NCc2ccco2)[C@H]2CO[C@H](O2)[C@@H]1N1CCC(Cc2ccccc2)CC1 [CBK288815]	99.1
CC(C)(C)c1ccc(CNC(=O)C2CCCN2S(=O)(=O)c2ccc3ccccc3c2)cc1 (stereo not shown) [CBK265020]	109
O=C(CC1CC1)Nc1cc(-c2ccncc2)c[nH]c1=O [CBK116585]	91.9
COCC(=O)N1CCc2sccc2C1c1ccc(NC(=O)c2ccc(OC)cc2)cc1 (stereo not shown) [CBK286467]	103
COc1ccccc1CNC(=O)N[C@@H](CC(C)C)C(=O)O [CBK286722]	92.9
CSc1cccc(NC(=O)NCCN2CCNC2=O)c1 [CBK057191]	103
Cn1c(/N=N/c2c(-c3ccccc3)n(C)c3ccccc23)nc2ccccc21 [CBK262114]	81.2
O=C(Nc1ccncc1)c1cccn(Cc2ccccc2F)c1=O [CBK287738]	111

Reference: paper PMC12040169 (PLOS Biology, 2025)
